Assay results reported in ChEMBL document CHEMBL1201862, “PubChem BioAssay data set” (2004).
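Assay format: 96-well plates, 48-hour exposure. GI50 marks 50% less growth.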 Calls of active or inactive are those of the source. Cut-off read from the data, not from the text of the source: active = GI50 up to about 1.1 µM and inactive = higher.

Tests used:
Test in all cases: NCI anticancer screen, dose series, 48 h
M19-MEL = tested on: M19-MEL
KM-20L2 = tested on: KM-20L2
SNB-78 = tested on: SNB-78
HOP-18 = tested on: HOP-18
DMS-273 = tested on: DMS-273
DLD-1 = tested on: DLD-1
DMS-114 = tested on: DMS-114
LXFL 529 = tested on: LXFL 529
RXF 631 = tested on: RXF 631

With `Cc1ccc([S+](c2ccccc2)c2cc(C)ccc2C)cc1.O=C(OC(C(=O)[O-])C(OC(=O)c1ccccc1)C(=O)O)c1ccccc1` (stereo not given) the GI50 (M19-MEL) was 5.41 µM (inactive), the GI50 (KM-20L2) was 7.73 µM (inactive) and the GI50 (SNB-78) was 17.7 µM (inactive). The GI50 (HOP-18) was 12.3 µM (inactive), the GI50 (DMS-273) was 1.89 µM (inactive) and the GI50 (DLD-1) was 14.6 µM (inactive).
For `CCNc1c(C(=O)N(CC)CC)c(=O)[nH]c2ncccc12`, the GI50 (M19-MEL) was > 100 µM (inactive), the GI50 (DMS-114) was > 100 µM (inactive) and the GI50 (KM-20L2) was > 100 µM (inactive). The GI50 (SNB-78) was > 100 µM (inactive), the GI50 (DMS-273) was > 100 µM (inactive) and the GI50 (DLD-1) was > 100 µM (inactive). The GI50 (LXFL 529) was > 100 µM (inactive).
For `O=C(/C=C1\NC(=O)c2ccccc2N1)c1ccncc1`, the GI50 (M19-MEL) was > 100 µM (inactive), the GI50 (DMS-114) was > 100 µM (inactive) and the GI50 (SNB-78) was > 100 µM (inactive). The GI50 (DLD-1) was > 100 µM (inactive).
With `CCOC(=O)Nc1ccc(S(=O)(=O)OC)cc1.CCOC(=O)Nc1ccc(S(=O)(=O)OC)cc1.NNC(=O)c1ccncc1` the GI50 (RXF 631) was > 50 µM (inactive), the GI50 (M19-MEL) was > 50 µM (inactive) and the GI50 (DMS-114) was > 50 µM (inactive). The GI50 (KM-20L2) was > 50 µM (inactive), the GI50 (SNB-78) was > 50 µM (inactive) and the GI50 (HOP-18) was > 50 µM (inactive). The GI50 (DMS-273) was > 50 µM (inactive), the GI50 (DLD-1) was 9.04 µM (inactive) and the GI50 (LXFL 529) was > 50 µM (inactive).
With `CCn1c(C)nn2c(=O)c3ccccc3nc2c1=O` the GI50 (M19-MEL) was > 100 µM (inactive), the GI50 (DMS-114) was > 100 µM (inactive) and the GI50 (KM-20L2) was > 100 µM (inactive). The GI50 (SNB-78) was > 100 µM (inactive), the GI50 (HOP-18) was > 100 µM (inactive) and the GI50 (DMS-273) was > 100 µM (inactive). For the same compound, the GI50 (DLD-1) was > 100 µM (inactive) and the GI50 (LXFL 529) was > 100 µM (inactive).
For `COC(=O)c1ccccc1N(C(=O)c1ccccc1)c1ccccc1C`, the GI50 (M19-MEL) was 48.2 µM (inactive), the GI50 (DMS-114) was 38.6 µM (inactive) and the GI50 (KM-20L2) was 73.8 µM (inactive). For the same compound, the GI50 (HOP-18) was 41.2 µM (inactive), the GI50 (DMS-273) was 47.1 µM (inactive) and the GI50 (DLD-1) was 43 µM (inactive). For the same compound, the GI50 (LXFL 529) was 85.5 µM (inactive).
For `CC1=NN(c2ccccc2)C(=O)C1/N=N/c1ccc(Br)cc1C` (stereo not given), the GI50 (RXF 631) was 32.4 µM (inactive), the GI50 (M19-MEL) was > 100 µM (inactive) and the GI50 (DMS-114) was > 100 µM (inactive). For the same compound, the GI50 (KM-20L2) was 0.634 µM (active), the GI50 (SNB-78) was 79.6 µM (inactive) and the GI50 (HOP-18) was 3.62 µM (inactive). For the same compound, the GI50 (DMS-273) was > 100 µM (inactive), the GI50 (DLD-1) was > 100 µM (inactive) and the GI50 (LXFL 529) was > 100 µM (inactive).
In the case of `OC(C1CO1)C(O)C1CO1` (stereo not given), the GI50 (M19-MEL) is reported as 74.8 µM (inactive), the GI50 (DMS-114) is reported as 35.6 µM (inactive) and the GI50 (KM-20L2) is reported as 140 µM (inactive). The GI50 (SNB-78) was 85.9 µM (inactive), the GI50 (HOP-18) was 145 µM (inactive) and the GI50 (DMS-273) was 8.81 µM (inactive). The GI50 (DLD-1) was > 150 µM (inactive).
With `CC1(C(=O)Nc2ccc3cc4ccccc4cc3c2)CC2(C)CC(C)(C1)C(O)NC2=O` (stereo not given) the GI50 (M19-MEL) was > 100 µM (inactive), the GI50 (DMS-114) was 92 µM (inactive) and the GI50 (KM-20L2) was 85.3 µM (inactive). For the same compound, the GI50 (SNB-78) was > 100 µM (inactive), the GI50 (HOP-18) was 93.5 µM (inactive) and the GI50 (DMS-273) was > 100 µM (inactive). For the same compound, the GI50 (DLD-1) was 32.9 µM (inactive) and the GI50 (LXFL 529) was > 100 µM (inactive).
For `O=c1c2cc(Cl)ccc2sc2cccc(Cl)c12`, the GI50 (RXF 631) was > 100 µM (inactive), the GI50 (M19-MEL) was > 100 µM (inactive) and the GI50 (KM-20L2) was > 100 µM (inactive). The GI50 (SNB-78) was > 100 µM (inactive), the GI50 (DMS-273) was > 100 µM (inactive) and the GI50 (LXFL 529) was > 100 µM (inactive).
In the case of `COc1ccc(/C=C(\C(C)=O)C(=O)Nc2ccccc2)cc1`, the GI50 (M19-MEL) is reported as > 100 µM (inactive), the GI50 (DMS-114) is reported as > 100 µM (inactive) and the GI50 (SNB-78) is reported as > 100 µM (inactive). The GI50 (HOP-18) was > 100 µM (inactive), the GI50 (DLD-1) was > 100 µM (inactive) and the GI50 (LXFL 529) was > 100 µM (inactive).
With `CCN(CC)CC(O)CNc1ccc(NCC2CO2)c2c1C(=O)c1ccccc1C2=O` (stereo not given) the GI50 (RXF 631) was 0.272 µM (active), the GI50 (M19-MEL) was 0.125 µM (active) and the GI50 (DMS-114) was 1.04 µM (active). For the same compound, the GI50 (KM-20L2) was 0.692 µM (active), the GI50 (SNB-78) was 0.398 µM (active) and the GI50 (HOP-18) was 16.6 µM (inactive). For the same compound, the GI50 (DMS-273) was 0.242 µM (active), the GI50 (DLD-1) was 1.9 µM (inactive) and the GI50 (LXFL 529) was 0.0486 µM (active).
In the case of `CCCCCCCCC/C=C1\CCC(CN2CCOCC2)C1=O` (stereo not given), the GI50 (RXF 631) is reported as 5.62 µM (inactive), the GI50 (M19-MEL) is reported as 3.28 µM (inactive) and the GI50 (DMS-114) is reported as 2.92 µM (inactive). The GI50 (KM-20L2) was 7.35 µM (inactive), the GI50 (SNB-78) was 4.29 µM (inactive) and the GI50 (HOP-18) was 1.54 µM (inactive). For the same compound, the GI50 (DMS-273) was 2.32 µM (inactive), the GI50 (DLD-1) was 1.96 µM (inactive) and the GI50 (LXFL 529) was 1.6 µM (inactive).
For `CC(C)c1ccc(O)c(Cc2cc(C(C)C)cc(Cc3cc(C(C)C)ccc3O)c2O)c1`, the GI50 (M19-MEL) was 1.61 µM (inactive), the GI50 (DMS-114) was 1.61 µM (inactive) and the GI50 (KM-20L2) was 2.07 µM (inactive). The GI50 (SNB-78) was 2.05 µM (inactive), the GI50 (DLD-1) was 2.01 µM (inactive) and the GI50 (LXFL 529) was 1.49 µM (inactive).
In the case of `CCN(CC)c1ccc(/N=N/c2ccc(-c3nc4ccc[n+](C)c4o3)cc2)cc1`, the GI50 (RXF 631) is reported as 12.7 µM (inactive), the GI50 (M19-MEL) is reported as 4.98 µM (inactive) and the GI50 (DMS-114) is reported as 3.7 µM (inactive). For the same compound, the GI50 (KM-20L2) was 13 µM (inactive), the GI50 (SNB-78) was 11.4 µM (inactive) and the GI50 (HOP-18) was 23.7 µM (inactive). The GI50 (DMS-273) was 10.5 µM (inactive), the GI50 (DLD-1) was 7.33 µM (inactive) and the GI50 (LXFL 529) was 3.81 µM (inactive).
For `CN(C)c1ccc(C2CC(=O)C(C#N)=C(c3ccccc3)NN2C)cc1` (stereo not given), the GI50 (RXF 631) was 44.7 µM (inactive), the GI50 (DMS-114) was 30.3 µM (inactive) and the GI50 (SNB-78) was 50.4 µM (inactive). The GI50 (HOP-18) was 96.6 µM (inactive), the GI50 (DLD-1) was 5.25 µM (inactive) and the GI50 (LXFL 529) was 8.28 µM (inactive).
In the case of `O=C(N/C=C1\C(=O)Oc2ccccc2C1=O)Nc1ccccc1`, the GI50 (M19-MEL) is reported as 55.8 µM (inactive), the GI50 (DMS-114) is reported as 44.9 µM (inactive) and the GI50 (KM-20L2) is reported as > 100 µM (inactive). For the same compound, the GI50 (SNB-78) was 30.1 µM (inactive), the GI50 (HOP-18) was 27.5 µM (inactive) and the GI50 (DMS-273) was > 100 µM (inactive). The GI50 (DLD-1) was 42.6 µM (inactive) and the GI50 (LXFL 529) was 81.1 µM (inactive).
For `O=[N+]([O-])c1ccc(Cl)c(C2CC(c3cccc4ccccc34)=Nc3ccccc3S2)c1` (stereo not given), the GI50 (RXF 631) was > 65 µM (inactive), the GI50 (M19-MEL) was 20.2 µM (inactive) and the GI50 (DMS-114) was 20.2 µM (inactive). For the same compound, the GI50 (KM-20L2) was 29.3 µM (inactive), the GI50 (SNB-78) was 26.5 µM (inactive) and the GI50 (HOP-18) was 26.9 µM (inactive). The GI50 (DMS-273) was 20.4 µM (inactive), the GI50 (DLD-1) was 13.2 µM (inactive) and the GI50 (LXFL 529) was 18.5 µM (inactive).
`COc1ccc(NC(=O)C(=O)c2c(O)c3ccc(O)cc3oc2=O)c([N+](=O)[O-])c1` was tested, and the GI50 (RXF 631) was > 100 µM (inactive), the GI50 (M19-MEL) was > 100 µM (inactive) and the GI50 (DMS-114) was > 100 µM (inactive). For the same compound, the GI50 (KM-20L2) was > 100 µM (inactive), the GI50 (DMS-273) was > 100 µM (inactive) and the GI50 (DLD-1) was > 100 µM (inactive). The GI50 (LXFL 529) was > 100 µM (inactive).
For `COc1ccccc1/C=C1\CCC(CCN(C)C)(C2=CCCC2)C1=O` (stereo not given), the GI50 (RXF 631) was 13.9 µM (inactive), the GI50 (M19-MEL) was 17.9 µM (inactive) and the GI50 (DMS-114) was 17.3 µM (inactive). The GI50 (KM-20L2) was 1.7 µM (inactive), the GI50 (SNB-78) was 23.9 µM (inactive) and the GI50 (HOP-18) was 26.5 µM (inactive). The GI50 (DMS-273) was 17.5 µM (inactive), the GI50 (DLD-1) was 16.8 µM (inactive) and the GI50 (LXFL 529) was 16.1 µM (inactive).
For `COC(=O)CC(C(C(=O)OC)C(=O)OC)N1C(=O)OCC1c1ccccc1` (stereo not given), the GI50 (RXF 631) was > 100 µM (inactive), the GI50 (M19-MEL) was > 100 µM (inactive) and the GI50 (KM-20L2) was > 100 µM (inactive). The GI50 (DMS-273) was 97.1 µM (inactive), the GI50 (DLD-1) was > 100 µM (inactive) and the GI50 (LXFL 529) was > 100 µM (inactive).
For `c1ccc2c3c([nH]c2c1)C1C2CCCCN2C(c2ccncc2)N1CC3` (stereo not given), the GI50 (M19-MEL) was 37.2 µM (inactive), the GI50 (DMS-114) was 27.2 µM (inactive) and the GI50 (KM-20L2) was 24 µM (inactive). The GI50 (SNB-78) was 42.8 µM (inactive), the GI50 (DMS-273) was 28.6 µM (inactive) and the GI50 (LXFL 529) was 38.1 µM (inactive).
For `C=C(CN(C)C)C(=O)c1ccccc1C`, the GI50 (RXF 631) was > 100 µM (inactive), the GI50 (M19-MEL) was 23.4 µM (inactive) and the GI50 (DMS-114) was 21.2 µM (inactive). For the same compound, the GI50 (KM-20L2) was > 67.1 µM (inactive), the GI50 (SNB-78) was > 100 µM (inactive) and the GI50 (HOP-18) was 22.9 µM (inactive). The GI50 (DMS-273) was 24.5 µM (inactive), the GI50 (DLD-1) was 20.9 µM (inactive) and the GI50 (LXFL 529) was 15.7 µM (inactive).
